Test results reported in PMC9354042, “Discovery of BRAF/HDAC Dual Inhibitors Suppressing Proliferation of Human Colorectal Cancer Cells” (Frontiers in Chemistry, 2022).

How the values were obtained:
[1] = biological target: T1, BRAF^V600E (Homo sapiens, UniProt P15056, V600E); experiment: BRAF V600E enzymatic activity, FRET-based Z'-Lyte kinase assay; type: biochemical
T1 construct: purchased Invitrogen
Description: (§1) The experiments were performed according to the instructions of the manufacturer. […] For each assay, 10 μl kinase reactions were added to 384-well plate, mixed thoroughly, and incubated for 1 hour at room temperature. Then, a 5 μl development solution was added to each well and the plate was incubated for another 1 h at room temperature. Then, a 5 μl stop reagent was loaded to stop the reaction. For the control setting, a 5 μl phospho-peptide solution instead of kinase/peptide mixture was used as 100% phosphorylation control. […] The plate was measured on an EnVision Multilabel Reader (Perkin-Elmer). Curve fitting and data presentations were performed using GraphPad Prism, version 5.0. Every experiment was repeated at least two times.

[2] = biological target: T2, HDAC8 (Homo sapiens, UniProt Q9BY41); experiment: HDAC8 fluorescent-based enzymatic activity assay; type: biochemical; conditions: for fold more potent than 14b against HDAC8: HDAC8 IC50 relative to 14b; for IC50: Supplementary Table 1, read-out: HDAC8 Enzymatic IC50
T2 construct: purchased BPS Bioscience
T2 sequence (Q9BY41 1-377): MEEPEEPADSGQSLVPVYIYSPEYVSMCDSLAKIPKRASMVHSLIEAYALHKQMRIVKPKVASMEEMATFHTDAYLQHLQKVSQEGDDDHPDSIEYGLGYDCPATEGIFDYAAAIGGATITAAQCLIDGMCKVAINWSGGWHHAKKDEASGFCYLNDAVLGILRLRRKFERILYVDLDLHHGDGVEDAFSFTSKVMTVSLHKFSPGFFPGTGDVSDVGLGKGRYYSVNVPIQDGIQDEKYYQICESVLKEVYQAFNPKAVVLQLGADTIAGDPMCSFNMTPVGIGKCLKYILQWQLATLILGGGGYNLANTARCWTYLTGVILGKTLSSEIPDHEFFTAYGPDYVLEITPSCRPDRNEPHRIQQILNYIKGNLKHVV
Description: (§2) The purified recombinant Human HDACs and their corresponding substrates were purchased from BPS Bioscience (BPS Bioscience Inc., United States). The assays were carried out in a 384-well format using the BPS fluorescent–based HDAC activity assay according to the manufacturer’s protocol. In brief, […] of the HDAC reaction mixture was composed of HDAC assay buffer, […] BSA, serial diluted test compounds, appropriate concentration of HDACs, and […] fluorogenic substrate, the mixture was incubated at 37°C for 60 min, and then stopped by the addition of developer containing trypsin and TSA. After 20 min of incubation, the fluorescence was detected at the excitation wavelength of 360 nm and the emission wavelength of 460 nm using the EnVision Multilabel Reader (PerkinElmer Inc., United States). The analytical software, GraphPad Prism 5.0 (GraphPad Software, Inc., United States) was used to generate IC50 value via non-linear regression analysis.

[3] = biological target: T3, HDAC1 (Homo sapiens, UniProt Q13547); experiment: HDAC1 fluorescent-based enzymatic activity assay; type: biochemical; conditions: Table 1; read-out: Enzymatic IC50 HDAC1
T3 construct: purchased BPS Bioscience
T3 sequence (Q13547 whole entry): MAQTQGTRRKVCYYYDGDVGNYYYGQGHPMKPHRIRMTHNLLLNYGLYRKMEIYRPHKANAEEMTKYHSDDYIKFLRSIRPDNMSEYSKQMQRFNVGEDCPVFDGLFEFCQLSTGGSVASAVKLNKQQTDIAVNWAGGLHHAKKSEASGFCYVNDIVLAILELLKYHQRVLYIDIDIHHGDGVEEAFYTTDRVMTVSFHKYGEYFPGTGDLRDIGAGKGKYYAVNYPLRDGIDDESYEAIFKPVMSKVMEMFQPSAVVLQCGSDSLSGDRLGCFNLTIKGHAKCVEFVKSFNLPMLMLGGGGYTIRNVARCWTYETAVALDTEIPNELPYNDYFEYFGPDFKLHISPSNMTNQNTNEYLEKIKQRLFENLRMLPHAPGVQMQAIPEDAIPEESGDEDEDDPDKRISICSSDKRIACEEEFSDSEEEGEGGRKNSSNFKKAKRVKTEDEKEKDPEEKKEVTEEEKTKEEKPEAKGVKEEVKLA
Description: as §2

[4] = biological target: T4, HDAC6 (Homo sapiens, UniProt Q9UBN7); experiment: HDAC6 fluorescent-based enzymatic activity assay; type: biochemical; conditions: Table 1; read-out: Enzymatic IC50 HDAC6
T4 construct: purchased BPS Bioscience
T4 sequence (Q9UBN7 1-1215): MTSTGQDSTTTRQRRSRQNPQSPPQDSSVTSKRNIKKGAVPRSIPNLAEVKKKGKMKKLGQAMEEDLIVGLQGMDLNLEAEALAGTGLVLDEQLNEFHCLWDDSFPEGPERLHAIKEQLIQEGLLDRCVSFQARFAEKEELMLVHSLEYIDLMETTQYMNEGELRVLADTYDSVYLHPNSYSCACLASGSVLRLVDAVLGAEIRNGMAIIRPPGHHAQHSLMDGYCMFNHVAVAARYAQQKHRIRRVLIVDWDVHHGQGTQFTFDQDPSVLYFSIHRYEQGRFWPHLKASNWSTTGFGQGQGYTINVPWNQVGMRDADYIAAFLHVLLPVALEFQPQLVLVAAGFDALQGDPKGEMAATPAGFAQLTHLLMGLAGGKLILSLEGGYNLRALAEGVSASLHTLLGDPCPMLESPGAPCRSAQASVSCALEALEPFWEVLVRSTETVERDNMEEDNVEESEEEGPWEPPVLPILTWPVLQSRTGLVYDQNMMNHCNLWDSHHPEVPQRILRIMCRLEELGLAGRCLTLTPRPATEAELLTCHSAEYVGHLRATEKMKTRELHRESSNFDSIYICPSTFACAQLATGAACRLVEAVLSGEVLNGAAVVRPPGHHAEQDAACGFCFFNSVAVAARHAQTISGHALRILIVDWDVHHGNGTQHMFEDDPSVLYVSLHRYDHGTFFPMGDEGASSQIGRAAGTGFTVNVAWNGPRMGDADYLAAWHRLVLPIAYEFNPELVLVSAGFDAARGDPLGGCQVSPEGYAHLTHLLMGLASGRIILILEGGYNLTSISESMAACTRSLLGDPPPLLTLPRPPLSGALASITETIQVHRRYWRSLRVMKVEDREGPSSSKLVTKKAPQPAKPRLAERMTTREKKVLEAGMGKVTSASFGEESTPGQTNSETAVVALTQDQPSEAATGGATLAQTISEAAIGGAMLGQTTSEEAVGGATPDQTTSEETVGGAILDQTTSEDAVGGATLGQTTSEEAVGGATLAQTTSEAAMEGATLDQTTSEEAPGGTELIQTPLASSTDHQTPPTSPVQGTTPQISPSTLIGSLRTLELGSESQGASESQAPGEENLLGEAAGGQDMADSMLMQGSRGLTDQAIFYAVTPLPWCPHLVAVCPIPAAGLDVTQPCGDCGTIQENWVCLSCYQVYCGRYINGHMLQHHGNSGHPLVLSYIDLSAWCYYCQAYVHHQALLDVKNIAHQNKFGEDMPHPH
Description: as §2

[5] = biological target: T5, BRAF (wild-type) (Homo sapiens, UniProt P15056); experiment: wild-type BRAF enzymatic activity, Z'-Lyte kinase assay; type: biochemical; conditions: wild-type BRAF kinase; read-out: BRAF^wt enzymatic IC50
T5 construct: purchased Invitrogen
T5 sequence (P15056 whole entry): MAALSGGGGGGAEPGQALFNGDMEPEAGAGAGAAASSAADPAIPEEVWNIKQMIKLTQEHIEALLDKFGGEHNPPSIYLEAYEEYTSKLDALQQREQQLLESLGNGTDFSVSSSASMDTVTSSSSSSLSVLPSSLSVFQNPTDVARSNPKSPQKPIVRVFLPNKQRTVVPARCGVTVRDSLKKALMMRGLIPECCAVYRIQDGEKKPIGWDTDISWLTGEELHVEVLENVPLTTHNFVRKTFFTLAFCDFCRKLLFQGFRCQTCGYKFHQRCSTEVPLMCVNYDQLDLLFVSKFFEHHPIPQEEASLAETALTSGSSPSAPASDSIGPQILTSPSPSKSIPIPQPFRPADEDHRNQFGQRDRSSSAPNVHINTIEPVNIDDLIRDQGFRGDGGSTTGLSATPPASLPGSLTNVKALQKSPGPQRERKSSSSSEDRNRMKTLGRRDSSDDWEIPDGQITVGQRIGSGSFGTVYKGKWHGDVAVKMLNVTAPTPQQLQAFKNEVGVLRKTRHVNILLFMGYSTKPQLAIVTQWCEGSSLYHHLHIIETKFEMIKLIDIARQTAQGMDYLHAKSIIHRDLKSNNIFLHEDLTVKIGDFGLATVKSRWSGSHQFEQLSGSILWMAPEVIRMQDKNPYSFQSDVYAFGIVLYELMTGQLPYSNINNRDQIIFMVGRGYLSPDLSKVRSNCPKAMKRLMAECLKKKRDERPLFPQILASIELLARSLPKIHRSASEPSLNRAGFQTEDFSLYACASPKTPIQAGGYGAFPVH
Description: as §1

[6] = system: BRAF (wild-type); experiment: as above; type: biochemical; conditions: ratio of enzymatic IC50
Description: as §1

[7] = system: HCT116 cells; experiment: Antiproliferation CCK-8 assay, HCT116; type: cell-based; conditions: Homo sapiens, HCT-116; CCK-8, 72 h, HCT116 (wild-type BRAF); means of three independent experiments; read-out: Cellular IC50 HCT116
Description: (§3) HCT116 and HT-29 cells were obtained from the Shanghai Cell Bank (Type Culture Collection (TCC), Chinese Academy of Sciences) and cultured in DMEM (10–013-CVR, corning) supplemented with 10% fetal bovine serum (04-001-1A, BI), 1% penicillin/streptomycin (03-031-1B, BI).
(§4) The cells in the logarithmic phase were placed in 96-well plates (∼3000 cells/well) in a complete medium. After incubation overnight, the cells were exposed to the corresponding compounds or vehicle control at the indicated concentration for a further 72 h. Cell proliferation was evaluated using Cell Counting Kit 8 (CCK8, CK04, Dojindo Laboratories, Kumamoto, Japan). OD450 and OD650 were determined using a microplate reader. Absorbance rate (A) for each well was calculated as OD450 −OD650. […] Each IC50 value is expressed as mean ± SD. As is the absorbance rate of the test compound well, Ac is the absorbance rate of the well without either the cell or test compound, and Ab is the absorbance rate of the well with the cell and vehicle control.

[8] = system: HT-29 cells; experiment: Antiproliferation CCK-8 assay, HT-29; type: cell-based; conditions: Homo sapiens; CCK-8, 72 h, HT-29 (BRAF^V600E); means of three independent experiments; read-out: Cellular IC50 HT-29
Description: as §3, §4

[9] = system: Ac-histone H3, Ac-α-tubulin, p-ERK in HT-29 cells; experiment: Western blot analysis of HDAC and RAF pathway in HT-29 cells; type: cell-based, human; conditions: 0.12-10 μM, 6 h
Description: (§5) FIGURE 3 Characterization of dual inhibition of HDAC and RAF pathway. Western blot analysis of 14b in HCT116 cells (A) and in HT-29 cells (B). Cells were treated with 0 μM, 0.12 μM, 0.37 μM, 1.1 μM, 3.3 μM, and 10 μM of drugs and incubated for 6 h. The cell lysis was subjected to Western blot analysis.
(§6) The cells were treated with various concentrations of 14b for 6 h. Then, the cells were lysed using 1×SDS sample lysis buffer (CST recommended) with protease and phosphatase inhibitors. Cell lysates were loaded and electrophoresed onto 8–12% SDS-PAGE gel, and then the separated proteins were transferred to a PVDF film. The film was blocked with 5% BSA (Sigma-Aldrich, St. Louis, MO, United States) in a TBS solution containing 0.5% Tween-20 for 4 h at room temperature, then incubated with the corresponding primary antibody (1:1000–1:200) overnight at 4°C. After washing with TBST, HRP-conjugated secondary antibody was incubated for 2 h. The protein signals were visualized by the ECL Western Blotting Detection Kit (Thermo Scientific, Grand Island, NY, United States), and detected with Amersham Imager 600 system (GE, Boston, MA, United States).

[10] = system: Ac-histone H3, Ac-α-tubulin, p-ERK in HCT116 cells; experiment: Western blot analysis of HDAC and RAF pathway in HCT116 cells; type: cell-based, human; conditions: 0.12-10 μM, 6 h; for phosphorylation of ERK (p-ERK): HCT116 cells (wild-type BRAF, K-RAS G13D); for acetylated histone H3 (Ac-histone H3) / acetylated α-tubulin (Ac-α-tubulin): HCT116 cells
Description: as §5, §6

T1 sequence (P15056 whole entry V600E): as the sequence (P15056 whole entry) above, with V600E counted along it

| IC50 [1] [nM] | fold more potent than 14b against HDAC8 [2] [fold] | IC50 [2] [nM] | IC50 [3] [nM] | IC50 [4] [nM] | IC50 [5] [nM] | IC50 [7] [nM] | IC50 [8] [nM] | Compound | selectivity of BRAF^V600E over wild-type BRAF [6] | acetylated histone H3 (Ac-histone H3) [9] | acetylated α-tubulin (Ac-α-tubulin) [9] | phosphorylation of ERK (p-ERK) [9] | phosphorylation of ERK (p-ERK) [10] | acetylated histone H3 (Ac-histone H3) [10] | acetylated α-tubulin (Ac-α-tubulin) [10] | other results |
| --- | --- | --- | --- | --- | --- | --- | --- | --- | --- | --- | --- | --- | --- | --- | --- | --- |
| 5.14 | 3.4 | 876 | 15.6 | 140 | 3.86 | 1080 | 950 | O=C(CCCCCCNc1nccc(-c2sc(-c3ccccc3)nc2-c2cccc(NS(=O)(=O)c3c(F)cccc3F)c2F)n1)NO [14j, 7-{[4-(4-(3-(2,6-Difluorophenylsulfonamido)-2-Fluorophenyl)-2-Phenylthiazol-5-yl)Pyrimidin-2-yl]Amino}-N-Hydroxyheptanamide] | slightly more potent against wild-type BARF |  |  |  |  |  |  |  |
| 1.26 | 4.8 | 623 | 474 | 101 | 2.86 | 2060 | 110 | CC(C)(C)c1nc(-c2cccc(NS(=O)(=O)c3ccccc3)c2F)c(-c2ccnc(NCCCCCCC(=O)NO)n2)s1 [21c, 7-{[4-(2-(Tert-Butyl)-4-(2-Fluoro-3-(Phenylsulfonamido)Phenyl)Thiazol-5-yl)Pyrimidin-2-yl]Amino}-N-Hydroxyheptanamide] | about 2 fold |  |  |  |  |  |  |  |
| 3.92 |  |  | 49.4 | 18.7 |  | 4410 | 4960 | Cc1nc(-c2cccc(NS(=O)(=O)c3ccccc3)c2F)c(-c2ccnc(NCCCCCCC(=O)NO)n2)s1 [21f, 7-{[4-(4-(2-Fluoro-3-(Phenylsulfonamido)Phenyl)-2-Methylthiazol-5-yl)Pyrimidin-2-yl]Amino}-N-Hydroxyheptanamide] |  |  |  |  |  |  |  |  |

More lines, now with the values behind:

| Compound | IC50 [1] [nM] | fold more potent than 14b against HDAC8 [2] [fold] | IC50 [2] [nM] | IC50 [3] [nM] | IC50 [4] [nM] | IC50 [5] [nM] | IC50 [7] [nM] | IC50 [8] [nM] | selectivity of BRAF^V600E over wild-type BRAF [6] | acetylated histone H3 (Ac-histone H3) [9] | acetylated α-tubulin (Ac-α-tubulin) [9] | phosphorylation of ERK (p-ERK) [9] | phosphorylation of ERK (p-ERK) [10] | acetylated histone H3 (Ac-histone H3) [10] | acetylated α-tubulin (Ac-α-tubulin) [10] | other results |
| --- | --- | --- | --- | --- | --- | --- | --- | --- | --- | --- | --- | --- | --- | --- | --- | --- |
| CC(C)(C)c1nc(-c2cccc(NS(=O)(=O)c3c(F)cccc3F)c2F)c(-c2ccnc(N)n2)s1 [Dabrafenib, dabrafenib] |  |  |  |  |  |  | > 10000 | 210 |  | had little impact | had little impact | reduced | paradoxically induced | had little impact | had little impact | phosphorylation of ERK (p-ERK) ([9]; listed as dabrafenib): reduced the phosphorylation of ERK; phosphorylation of ERK (p-ERK) ([10]; listed as dabrafenib): causes paradoxical activation of ERK |
| O=C(CCCCCCC(=O)Nc1ccccc1)NO [Vorinostat, vorinostat] |  |  |  |  |  |  |  |  |  | dose-dependently induced | dose-dependently induced | had little impact | had little impact | dose-dependently induced | dose-dependently induced | acetylated histone H3 (Ac-histone H3) ([9]; listed as vorinostat): upregulated; acetylated α-tubulin (Ac-α-tubulin) ([9]; listed as vorinostat): upregulated; acetylated histone H3 (Ac-histone H3) ([10]; listed as vorinostat): upregulated; acetylated α-tubulin (Ac-α-tubulin) ([10]; listed as vorinostat): upregulated |
